Consider eight molecules from patent US9738670B2, “Pentaaza macrocyclic ring complexes possessing oral bioavailability” (Galera Labs, LLC, priority 2015, dated 2017).

For series [1], the system named is experimental model of colitis. As to conditions: intraperitoneal (ip) injection, rats; cited from earlier work.
Series [2] relates to collagen-induced arthritis. The note with it: ip, rat; cited from earlier work.
In series [3] the test system is lethal total body irradiation. The note with it: ip, adult mice; cited from earlier work.
Series [4] has as its system radiation-induced oral mucositis. As to conditions: ip, hamster; cited from earlier work.
The nature of series [5]: Intraduodenal (id) bioavailability screen in minipigs, oil formulations, vs iv parent dichloro complex. It is filed as in vivo, Gottingen minipig. As to conditions: id 10 mg/kg, 10% by weight formulation, AUC0->24 h vs iv 1 mg/kg parent chloro complex. Here is the method: Compounds were screened for oral bioavailability by injecting the formulated prodrugs directly into the duodenum (intraduodenal or id administration) of the minipig test subjects, thus bypassing the acidic environment of the stomach and thereby eliminating potentially misleading oral bioavailability results that could arise from alteration of the test article drug in the acid environment of the stomach.
The studies were conducted at Xenometrics LLC (Stillwell, Kans.) and the Id bioavailability was determined using various axial ligand derivative complexes of GC4419, GC4444, GC4403 and GC4401.
*Where the iv dose is 1 mg of test article drug per kilogram body weight of the mini-pig, and the dose administered id is 10 mg of test article drug per kg body weight of the mini-pig.
Male Gottingen minipigs (4-5 mo old, 9-12 kg weight) were purchased from Marshall BioResources and housed at Xenometrics. […] The distal end was exteriorized with a reusable accessible hub (see surgical details below). During a recovery period of at least 2 weeks the minipigs were handled daily to acclimate them to the test procedures, i.e., id dosing and blood collections. For each experiment, each minipig received a test article drug dissolved or suspended in an excipient vehicle. […] All dosing experiments were conducted in fasted animals. Food was withdrawn from the minipigs 16 hours before dosing. The minipigs had ad libitum access to water. Dosed minipigs were allowed access to food 6 hour after dosing. The test article was administered at a dose of 10 mg/kg parent drug in 0.1 m L/kg vehicle (e.g., 1.5 mL in 15 kg minipig) as a bolus injection (˜1 minute) via the id cannula. The actual amount of total test article drug administered varied with the formula weight of the prodrug. An equal volume of excipient vehicle was used to flush the cannula after the test article was administered. Approximately 6 hours later, corn oil was used to flush the cannula. After approximately 24 hours post-dose, the catheter was flushed with sterile saline solution and capped. At the following time-points 0.25, 0.5, 1, 2, 4, 8, 24 and 48 hour post-injection, 2 mL blood samples were collected by cranial vena cava puncture (4 mL Sodium heparin Vacutainer, 20 g 1.5″ needle) after the skin surface was wiped with ethanol. The minipig was placed in a sling in a recumbent position without anesthesia for the collection of blood samples. The minipigs were never used more than once per 7 days for experimentation. The blood samples were kept on ice until processed for plasma. Blood samples were centrifuged at 1200×g for ten minutes at 4° C. and plasma samples were transferred to 96 well plate tubes, capped and stored at −20° C. until shipment on dry ice to the analytical laboratory used for measuring the concentration of drug in the plasma. The concentration of the parent manganese pentaaza macrocylic ring complex (independent of the composition of the axial ligands) was measured in plasma using a validated HPLC/MS/MS method that is linear between 50 ng/mL and 20,000 ng/mL.
The oils used for preparing the dosing solutions were used as supplied from commercial sources. The Capmul MCM (NF) is a mixture of mono/diglycerides of caprylic/capric acids and was supplied by ABITEC Corporation, Janesville, Wis. The Miglyol 812 N is a mixture of caprylic/capric acid triglycerides and was supplied by Cremer Oleo Division, Eatontown, N.J. Labrafil M 2125 CS (NF) is chemically defined to be linoleoyl polyoxyl-6 glycerides NF and was supplied by Gattefosse, SAINT-PRIEST Cedex, France. Peceol is chemically defined to be the monoglyceride, glyceryl monooleate NF, and was supplied by Gattefosse, SAINT-PRIEST Cedex, France. Maisine 35-1 is chemically defined to be the monoglyceride glyceryl monolinoleate (NF) and was supplied by Gattefosse, SAINT-PRIEST Cedex, France. Labrasol (NF) is chemically defined to be caprylocaproyl polyoxyl-8 glycerides NF and was supplied by Gattefosse, SAINT-PRIEST Cedex, France. […]

The test system of the next series is mouse cancer models. As to conditions: ip; cited from earlier work.
The subject of series [6] is VEGFr inhibitor-induced pulmonary disease. As to conditions: ip, rat; cited from earlier work.
The subject of another series is oral mucositis. The note with it: intravenous (iv) infusion, patients; cited from earlier work.

For `[Cl-].[Cl-].[Mn+2].c1cc2nc(c1)CN[C@@H]1CCCC[C@H]1NCCN[C@@H]1CCCC[C@H]1NC2` [GC4403], the “injury to the colon” value in series [1] is recorded as “significantly reduce the injury to the colon”. Further, the joint disease entry in series [2] is listed as “prevent joint disease”. For the same molecule, the radiation damage entry in series [3] and in series [4] was “attenuate the radiation damage” each time. Besides, the “Mini-Pig BioA” value in series [5] (base oil Capmul MCM) was 9%.
With `[Cl][Mn][Cl].c1cc2nc(c1)CN[C@H]1CCCC[C@@H]1NCCN[C@H]1CCCC[C@@H]1NC2` [GC4419, reference compound], in the series on mouse cancer models, the “anti-tumor activity of co-administered agents” value was “increase the anti-tumor activity of anti-metabolite and anti-mitotic agents”. Also, the pulmonary disease entry in series [6] is “attenuate VEGFr inhibitor-induced pulmonary disease”. In addition, the oral mucositis entry with oral mucositis is on record as “reduce oral mucositis”. The “Mini-Pig BioA” value in series [5] (base oil Capmul MCM) was 9%; in series [5] (base oil Labrafil M2125 CS), 7%; in series [5] (base oil Maisine 35-1) it was 8%; in series [5] (base oil Miglyol 812N), 8%; in series [5] (base oil Peceol) it was 9%.
For the molecule “Manganese(II)bis-rac-Mandelato[(4aS,13aS,17aS,21aS)-1,2,3,4,4a,5,6,12,13,13a,14,15,16,17,17a,18,19,20,21,21a-Eicosahydro-11,7-nitrilo-7H-dibenzo[b,h][1,4,7,10] tetraazacycloheptadecine-KN5, KN13, KN18, KN21, KN22]- [GC4706]”, in series [5] (base oil Capmul MCM), the “Mini-Pig BioA” value amounted to 28%.
On to “Manganese(II)bis-racemic-2-phenylpropionato[(4aS,13aS,17aS,21aS)-1,2,3,4,4a,5,6,12,13,13a,14,15,16,17,17a,18,19,20,21,21a-Eicosahydro-11,7-nitrilo-7H-dibenzo[b,h][1,4,7,10] tetraazacycloheptadecine-KN5, KN13, KN18, KN21, KN22]- [GC4705]”, for which the figures for the “Mini-Pig BioA” value in series [5] (base oil Capmul MCM) and in series [5] (base oil Peceol) were 23% and 24%, respectively.
As for “Manganese(II)bis-racemic-phenylglycinato[2S, 21S-Dimethyl(4aR,13aR,17aR,21aR)-1,2,3,4,4a,5,6,12,13,13a,14,15,16,17,17a,18,19,20,21,21a-Eicosahydro-11,7-nitrilo-7H-dibenzo[b,h][1,4,7,10] tetraazacycloheptadecine-KN5, KN13, KN18, KN21, KN22]- [GC4715]”, in series [5] (base oil Capmul MCM), the “Mini-Pig BioA” value is on record as 36%.
On the same count and under the same terms, then “Manganese(II)bis-racemic-phenylglycinato[6R-Methyl(4aR,13aR,17aR,21aR)-1,2,3,4,4a,5,6,12,13,13a,14,15,16,17,17a,18,19,20,21,21a-Eicosahydro-11,7-nitrilo-7H-dibenzo[b,h][1,4,7,10] tetraazacycloheptadecine-KN5, KN13, KN18, KN21, KN22]- [GC4716]”, with 34%.
Take “Manganese(II)bis-racemic-phenylglycinato[(4aR,13aR,17aR,21aR)-1,2,3,4,4a,5,6,12,13,13a,14,15,16,17,17a,18,19,20,21,21a-Eicosahydro-11,7-nitrilo-7H-dibenzo[b,h][1,4,7,10] tetraazacycloheptadecine-KN5, KN13, KN18, KN21, KN22]- [GC4717]”: the “Mini-Pig BioA” value in series [5] (base oil Capmul MCM) came to 26%.
As to “Manganese(II)bis-racemic-phenylglycinato[(4aS,13aS,17aS,21aS)-1,2,3,4,4a,5,6,12,13,13a,14,15,16,17,17a,18,19,20,21,21a-Eicosahydro-11,7-nitrilo-7H-dibenzo[b,h][1,4,7,10] tetraazacycloheptadecine-KN5, KN13, KN18, KN21, KN22]- [GC4720]”, the “Mini-Pig BioA” value was 33% in series [5] (base oil Capmul MCM) and 32% in series [5] (base oil Miglyol 812N).
